Patent US20240199702A1, “CELL-PERMEABLE CYCLIC PEPTIDES AND USES THEREOF” (Unnatural Products Inc., priority 2021, published 2024)
*1 amine or outer side, *2 acyl side, *3 side chain or, on linkers, in order; H or OH if unused. Where a SMILES comes first, the peptide text is derived from it. [ ]: non-standard residue; d: D form. The star is where a group is joined. ξ: configuration not given here. Ala(thiazol-5-yl) = N[C@@H](Cc1cncs1)C(=O)O; Ala(4-thiazolyl) = N[C@@H](Cc1cscn1)C(=O)O; NMePhe(4-F) = CN[C@@H](Cc1ccc(F)cc1)C(=O)O; Phe(4-Cl) = N[C@@H](Cc1ccc(Cl)cc1)C(=O)O; Phe(4-F) = N[C@@H](Cc1ccc(F)cc1)C(=O)O; X2 = CC1(C)CN([*:1])[C@@H]1C(=O)[*:2]; NMeF = CN[C@@H](Cc1ccccc1)C(=O)O; NMeT = CN[C@H](C(=O)O)[C@@H](C)O; NMeV = CN[C@H](C(=O)O)C(C)C; hSer = N[C@@H](CCO)C(=O)O; NMeA = CN[C@@H](C)C(=O)O; dNMeA = CN[C@H](C)C(=O)O; ξNMeV = CNC(C(=O)O)C(C)C; Aze = O=C(O)[C@@H]1CCN1; NBuGly = CCCCNCC(=O)O; Butyryl = CCCC(=O)*; Nme = COCCNCC(=O)O; NEtG = CCNCC(=O)O; Sar = CNCC(=O)O

Assays:
MV4-11 cells = assay: Cellular Fluorescence Assay 2 (CellTiter-Glo, 72 hours); type: cell-based
Protocol: Cellular Fluorescence Assay 2
(§1) MV4-11 cells were grown in suspension in T75 flasks in RPMI medium with 10% fetal bovine serum (FBS) at 37° C. with 5% CO2. 40 μL of MV4-11 cells were plated into columns 1-22 of white, flat bottom, 384 well plates at a density of 1,000 cells per well in RPMI with 10% FBS. Columns 23 and 24 were filled with 40 μL of media as a positive control. 100 nL of compounds dissolved in DMSO were pin transferred into columns 3-22 of the 384 well plate. Columns 1 and 2 served as negative control wells. Plates were incubated for 72 hours at 37° C. with 5% CO2. After incubation, the cells were given 10 μL of CellTiter-Glo® (Promega®). Luminescence was read on a Molecular Devices SpectraMax i3x plate reader.

Human MDM4 (HDM4) 1-114 = target: T1, Human MDM4 (HDM4) 1-114 (Homo sapiens, UniProt O15151); assay: Fluorescence Polarization Assay 2 (MDM4/p53 peptide); type: binding; details: FAM-labeled p53 peptide, 60 minutes
T1 construct: Human MDM4 (HDM4) 1-114
T1 sequence (O15151 1-114): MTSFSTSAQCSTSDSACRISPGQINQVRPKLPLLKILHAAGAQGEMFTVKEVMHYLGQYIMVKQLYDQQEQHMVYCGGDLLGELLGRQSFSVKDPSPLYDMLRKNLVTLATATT
Protocol: Fluorescence Polarization Assay 2
(§2) Human MDM4 (HDM4) 1-114 (20 μL) and FAM-labeled GGTSFAEYWNLLSP —NH2, 20 nM and 5 nM respectively in 10 mM Tris, 50 mM NaCl, 0.01% Tween20, and 1 mM DTT at pH 7.4 were dispensed into an opaque, black, 384 well plate. Compounds dissolved in DMSO were pin transferred (−100-200 nL) to the 384 well plate containing the MDM4/p53 solution. After incubation for 60 minutes, the fluorescence polarization was read on a Molecular Devices SpectraMax plate reader equipped with a Fluorescein FP cartridge. In addition to probe alone (positive control) and probe/MDM4 (negative control), a titration of linear p53(18-26) was included on every plate as an additional control. IC50 values were fit using either Prism or Collaborative Drug Discovery.

Human MDM2 (HDM2) 1-116 = target: T2, Human MDM2 (HDM2) 1-116 (Homo sapiens, UniProt Q00987); assay: Fluorescence Polarization Assay 1 (MDM2/p53 peptide); type: binding; details: FAM-labeled p53 peptide, 60 minutes
T2 construct: Human MDM2 (HDM2) 1-116
T2 sequence (Q00987 1-116): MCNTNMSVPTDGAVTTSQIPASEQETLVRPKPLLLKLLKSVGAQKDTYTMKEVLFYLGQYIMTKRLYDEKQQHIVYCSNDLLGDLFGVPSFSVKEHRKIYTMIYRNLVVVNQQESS
Protocol: Fluorescence Polarization Assay 1
as §2, with “MDM2 (HDM2) 1-116” for “MDM4 (HDM4) 1-114”, “GGTSFAEYWNLLSP-NH2, 10” for “GGTSFAEYWNLLSP —NH2, 20”, “(˜100-200” for “(−100-200”, “MDM2/p53” for “MDM4/p53”, “probe/MDM2” for “probe/MDM4”

WaGa cells = assay: Cellular Fluorescence Assay 3 (CellTiter-Glo, 72 hours); type: cell-based
Protocol: Cellular Fluorescence Assay 3
as §1, with “WaGa” for “MV4-11”

MOLM-13 cells = assay: Cellular Fluorescence Assay 1 (CellTiter-Glo, 72 hours); type: cell-based
Protocol: Cellular Fluorescence Assay 1
as §1, with “MOLM-13” for “MV4-11”, “ofMOLM-13” for “of MV4-11”

MKL-1 cells = assay: Cellular Fluorescence Assay 4 (CellTiter-Glo, 72 hours); type: cell-based
Protocol: Cellular Fluorescence Assay 4
as §1, with “MKL-1” for “MV4-11”, “MKL-1” for “of MV4-11”, “reader. In some embodiments, the cyclic peptide described herein is a cyclic peptide depicted in Table 1: […]” for “reader.”

SMILES	IC50 (MV4-11 cells)	IC50 (Human MDM4 (HDM4) 1-114)	IC50 (Human MDM2 (HDM2) 1-116)	IC50 (MOLM-13 cells)	IC50 (WaGa cells)	IC50 (MKL-1 cells)
COCC[C@@H]1NC(=O)[C@H]2CCCN2C(=O)[C@H](Cc2ccccc2)N(C)C(=O)[C@H](Cc2ccc(Cl)cc2)NC(=O)[C@H]([C@@H](C)OC)N(C)C(=O)[C@H](Cc2ccc(F)cc2)NC(=O)CN(CCOC)C(=O)[C@@H](C)N(C)C(=O)[C@H](Cc2cscn2)NC(=O)[C@H](C)N(C)C1=O [compound 20] (cyclo([Ala(4-thiazolyl)][dNMeA][Nme][Phe(4-F)][NMeT](Me)[Phe(4-Cl)][NMeF][dP][hSer](Me)[NMeA]))	–	50 to 100 nM	< 25 nM	–	–	–
COCC[C@@H]1NC(=O)[C@H]2CCCN2C(=O)[C@H](Cc2ccc(F)cc2)N(C)C(=O)[C@H](Cc2ccc(Cl)cc2)NC(=O)[C@@H]2CCN2C(=O)[C@H](Cc2ccc(F)cc2)NC(=O)CN(CCOC)C(=O)[C@@H](C)N(C)C(=O)[C@H](Cc2cscn2)NC(=O)[C@@H]2CCCN2C1=O [compound 21] (cyclo([Ala(4-thiazolyl)][dNMeA][Nme][Phe(4-F)][Aze][Phe(4-Cl)][NMePhe(4-F)][dP][hSer](Me)P))	≥ 150 nM	50 to 100 nM	50 to 100 nM	≥ 150 nM	≥ 150 nM	1000 to 2000 nM
COCC[C@@H]1NC(=O)[C@H]2CCCN2C(=O)[C@H](Cc2ccc(F)cc2)N(C)C(=O)[C@H](Cc2ccc(Cl)cc2)NC(=O)[C@@H]2CCN2C(=O)[C@H](Cc2ccc(F)cc2)NC(=O)CN(CCOC)C(=O)[C@@H](C)N(C)C(=O)[C@H](Cc2cscn2)NC(=O)CN(C)C1=O [compound 23] (cyclo([Ala(4-thiazolyl)][dNMeA][Nme][Phe(4-F)][Aze][Phe(4-Cl)][NMePhe(4-F)][dP][hSer](Me)[Sar]))	≥ 150 nM	50 to 100 nM	50 to 100 nM	≥ 150 nM	≥ 150 nM	≥ 2000 nM
CCCCN1CC(=O)N[C@@H](Cc2ccc(F)cc2)C(=O)N(C)C(C(C)C)C(=O)N[C@@H](Cc2ccc(Cl)cc2)C(=O)N(C)[C@@H](Cc2ccccc2)C(=O)N2CCC[C@@H]2C(=O)N[C@@H](CCOC)C(=O)N(C)[C@@H](C)C(=O)N[C@@H](Cc2cncs2)C(=O)N(C)[C@H](C)C1=O (stereo partly drawn) [compound 24] (cyclo([NMeA][Ala(thiazol-5-yl)][dNMeA][NBuGly][Phe(4-F)][ξNMeV][Phe(4-Cl)][NMeF][dP][hSer](Me)))	≥ 150 nM	≥ 100 nM	25 to 50 nM	≥ 150 nM	≥ 150 nM	≥ 2000 nM
CCN1CC(=O)N[C@@H](Cc2ccc(F)cc2)C(=O)N(C)[C@@H](C(C)C)C(=O)N[C@@H](Cc2ccc(Cl)cc2)C(=O)N(C)[C@@H](Cc2ccccc2)C(=O)N2CCC[C@@H]2C(=O)N[C@@H](CCOC)C(=O)N(C)[C@@H](C)C(=O)N[C@@H](Cc2cncs2)C(=O)N(C)[C@H](C)C1=O [compound 25] (cyclo([NEtG][Phe(4-F)][NMeV][Phe(4-Cl)][NMeF][dP][hSer](Me)[NMeA][Ala(thiazol-5-yl)][dNMeA]))	100 to 150 nM	≥ 100 nM	< 25 nM	≥ 150 nM	≥ 150 nM	500 to 1000 nM
COCC[C@@H]1NC(=O)[C@H]2CCCN2C(=O)[C@H](Cc2ccccc2)N(C)C(=O)[C@H](Cc2ccc(Cl)cc2)NC(=O)[C@H](C(C)C)N(C)C(=O)[C@H](Cc2ccc(F)cc2)NC(=O)[C@H](C)N(C)C(=O)[C@@H](C)N(C)C(=O)[C@H](Cc2cncs2)NC(=O)[C@H](C)N(C)C1=O [compound 26] (cyclo([NMeA][Phe(4-F)][NMeV][Phe(4-Cl)][NMeF][dP][hSer](Me)[NMeA][Ala(thiazol-5-yl)][dNMeA]))	50 to 100 nM	50 to 100 nM	< 25 nM	100 to 150 nM	100 to 150 nM	500 to 1000 nM
COCC[C@@H]1NC(=O)[C@H]2CCCN2C(=O)[C@H](Cc2ccccc2)N(C)C(=O)[C@H](Cc2ccc(Cl)cc2)NC(=O)[C@H](C(C)C)N(C)C(=O)[C@H](Cc2ccc(F)cc2)NC(=O)CN(C)C(=O)[C@@H](C)N(C)C(=O)[C@H](Cc2cncs2)NC(=O)[C@H](C)N(C)C1=O [compound 27] (cyclo([NMeA][Ala(thiazol-5-yl)][dNMeA][Sar][Phe(4-F)][NMeV][Phe(4-Cl)][NMeF][dP][hSer](Me)))	100 to 150 nM	≥ 100 nM	< 25 nM	≥ 150 nM	100 to 150 nM	500 to 1000 nM

The next lines start with results.

IC50 (MV4-11 cells)	IC50 (Human MDM4 (HDM4) 1-114)	IC50 (Human MDM2 (HDM2) 1-116)	IC50 (MOLM-13 cells)	SMILES	IC50 (WaGa cells)	IC50 (MKL-1 cells)
< 50 nM	50 to 100 nM	25 to 50 nM	50 to 100 nM	CCCC(=O)O[C@H](C)[C@@H]1NC(=O)[C@H](Cc2ccc(F)cc2)NC(=O)CN(CCOC)C(=O)[C@@H](C)N(C)C(=O)[C@H](Cc2cscn2)NC(=O)[C@H](C)N(C)C(=O)[C@H](CCOC)NC(=O)[C@H]2CCCN2C(=O)[C@H](Cc2ccccc2)N(C)C(=O)[C@H](Cc2ccc(Cl)cc2)NC1=O [compound 6] (cyclo([Ala(4-thiazolyl)][dNMeA][Nme][Phe(4-F)]T(Butyryl)[Phe(4-Cl)][NMeF][dP][hSer](Me)[NMeA]))	< 50 nM	< 500 nM
100 to 150 nM	< 25 nM	< 25 nM	≥ 150 nM	COCC[C@@H]1NC(=O)[C@H]2CCCN2C(=O)[C@H](Cc2ccc(F)cc2)N(C)C(=O)[C@H](Cc2ccc(Cl)cc2)NC(=O)[C@H]2N(CC2(C)C)C(=O)[C@H](Cc2ccc(F)cc2)NC(=O)CN(CCOC)C(=O)[C@@H](C)N(C)C(=O)[C@H](Cc2cscn2)NC(=O)[C@H](C)N(C)C1=O [compound 11] (cyclo([Ala(4-thiazolyl)][dNMeA][Nme][Phe(4-F)][X2][Phe(4-Cl)][NMePhe(4-F)][dP][hSer](Me)[NMeA]))	–	–
50 to 100 nM	25 to 50 nM	25 to 50 nM	≥ 150 nM	COCC[C@@H]1NC(=O)[C@H]2CCCN2C(=O)[C@H](Cc2ccc(F)cc2)N(C)C(=O)[C@H](Cc2ccc(Cl)cc2)NC(=O)[C@@H]2CCN2C(=O)[C@H](Cc2ccc(F)cc2)NC(=O)CN(CCOC)C(=O)[C@@H](C)N(C)C(=O)[C@H](Cc2cscn2)NC(=O)[C@H](C(C)C)N(C)C1=O [compound 22] (cyclo([Ala(4-thiazolyl)][dNMeA][Nme][Phe(4-F)][Aze][Phe(4-Cl)][NMePhe(4-F)][dP][hSer](Me)[NMeV]))	50 to 100 nM	< 500 nM
